Patent publication US20220389515A1, “USE OF BIOMARKERS TO PREDICT CLINICAL SENSITIVITY TO 2-(4-CHLOROPHENYL)-N-((2-(2,6-DIOXOPIPERIDIN-3-YL)-1-OXOISOINDOLIN-5-YL)METHYL)-2,2-DIFLUOROACETAMIDE” (priority 2019, published 2022)
“Also recorded” adds a separate entry of the source.

Legend:
GSPT1 [1] = biological target: T1, GSPT1 (Homo sapiens, UniProt P15170, G437N); assay: Immunoblot analysis of Compound D-induced GSPT1 degradation in AML cells; assay type: cell-based; settings: U937, MOLM-13, OCI-AML2 stably expressing HA-GSPT1-G575N
T1 construct: endogenous in cells; host or cells: KG-1 (TMT proteomics); KG1, U937 / U937-Cas9, MOLM-13, OCI-AML2 (immunoblots)
T1 sequence (P15170 1-637 isoform P15170-3 G575N): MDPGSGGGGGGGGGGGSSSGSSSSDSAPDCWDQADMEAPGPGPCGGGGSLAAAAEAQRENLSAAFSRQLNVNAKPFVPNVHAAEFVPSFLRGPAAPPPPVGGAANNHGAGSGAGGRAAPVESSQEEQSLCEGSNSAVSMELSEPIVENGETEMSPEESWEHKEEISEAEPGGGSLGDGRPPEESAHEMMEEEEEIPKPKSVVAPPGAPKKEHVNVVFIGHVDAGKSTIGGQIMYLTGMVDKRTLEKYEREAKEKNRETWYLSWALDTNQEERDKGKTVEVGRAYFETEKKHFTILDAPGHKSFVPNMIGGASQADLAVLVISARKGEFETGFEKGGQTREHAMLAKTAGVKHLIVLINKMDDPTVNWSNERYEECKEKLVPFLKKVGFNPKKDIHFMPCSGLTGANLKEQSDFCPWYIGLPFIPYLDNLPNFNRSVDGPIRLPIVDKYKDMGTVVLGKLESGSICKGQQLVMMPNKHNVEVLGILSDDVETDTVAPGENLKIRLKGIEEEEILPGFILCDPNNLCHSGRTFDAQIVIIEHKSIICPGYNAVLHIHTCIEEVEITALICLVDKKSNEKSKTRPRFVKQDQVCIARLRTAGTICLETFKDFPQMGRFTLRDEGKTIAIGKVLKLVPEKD
T1 sequence (Q96SW2 whole entry partner): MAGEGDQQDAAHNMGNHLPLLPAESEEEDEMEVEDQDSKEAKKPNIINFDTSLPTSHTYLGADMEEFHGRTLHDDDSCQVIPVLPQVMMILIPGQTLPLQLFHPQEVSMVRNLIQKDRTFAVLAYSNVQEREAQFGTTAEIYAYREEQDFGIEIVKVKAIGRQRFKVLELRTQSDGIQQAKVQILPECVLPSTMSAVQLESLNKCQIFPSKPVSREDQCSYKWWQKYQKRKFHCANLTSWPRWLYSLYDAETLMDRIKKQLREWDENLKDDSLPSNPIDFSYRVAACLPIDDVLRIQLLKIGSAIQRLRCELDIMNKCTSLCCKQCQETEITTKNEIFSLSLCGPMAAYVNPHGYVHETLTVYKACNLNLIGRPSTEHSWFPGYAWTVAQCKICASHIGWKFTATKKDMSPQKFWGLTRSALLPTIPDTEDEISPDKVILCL
T1 sequence (Q16531 2-1140 partner): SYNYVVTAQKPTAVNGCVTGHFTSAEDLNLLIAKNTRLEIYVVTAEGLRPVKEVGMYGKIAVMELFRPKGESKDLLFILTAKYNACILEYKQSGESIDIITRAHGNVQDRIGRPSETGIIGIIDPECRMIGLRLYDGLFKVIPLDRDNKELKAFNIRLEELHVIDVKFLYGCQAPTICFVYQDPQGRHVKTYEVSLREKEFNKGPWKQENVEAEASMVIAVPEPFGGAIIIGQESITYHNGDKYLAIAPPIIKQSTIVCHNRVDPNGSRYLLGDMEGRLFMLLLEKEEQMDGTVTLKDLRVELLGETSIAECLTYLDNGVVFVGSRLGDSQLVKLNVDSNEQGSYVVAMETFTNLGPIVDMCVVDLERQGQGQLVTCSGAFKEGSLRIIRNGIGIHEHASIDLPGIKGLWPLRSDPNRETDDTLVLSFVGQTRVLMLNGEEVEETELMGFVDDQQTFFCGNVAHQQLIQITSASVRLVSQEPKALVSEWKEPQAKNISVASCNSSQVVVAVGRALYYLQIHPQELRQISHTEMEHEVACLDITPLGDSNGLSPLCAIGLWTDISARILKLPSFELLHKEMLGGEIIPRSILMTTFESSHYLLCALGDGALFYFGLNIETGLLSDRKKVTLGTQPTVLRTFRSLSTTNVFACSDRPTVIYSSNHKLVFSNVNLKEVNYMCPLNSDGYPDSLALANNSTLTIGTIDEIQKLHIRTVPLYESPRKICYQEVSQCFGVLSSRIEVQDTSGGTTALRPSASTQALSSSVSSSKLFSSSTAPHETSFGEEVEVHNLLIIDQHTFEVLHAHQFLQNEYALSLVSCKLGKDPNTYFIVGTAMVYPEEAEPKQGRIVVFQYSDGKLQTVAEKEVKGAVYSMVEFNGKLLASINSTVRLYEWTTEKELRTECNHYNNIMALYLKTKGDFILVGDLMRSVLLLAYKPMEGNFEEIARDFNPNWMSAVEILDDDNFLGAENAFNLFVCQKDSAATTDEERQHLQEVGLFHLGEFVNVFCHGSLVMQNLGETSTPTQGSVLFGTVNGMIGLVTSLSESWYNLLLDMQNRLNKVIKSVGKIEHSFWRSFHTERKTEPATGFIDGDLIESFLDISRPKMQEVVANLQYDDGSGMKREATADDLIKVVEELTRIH
Procedure: (§1) FIG. 2A illustrates the volcano plot of differentially abundant proteins in response to Compound D treatment relative to the DMSO control. KG1 cells were treated with DMSO or 100 nM Compound D for 4 hours and subjected to TMT proteomics analysis. The X-axis denotes the log 2-fold change of Compound D versus the DMSO control for each protein. P-values were corrected for multiple hypothesis testing using the Benjamini-Hoschberg method to arrive at an adjusted-P-value (adj-P, also known as a false discovery rate). The y-axis denotes the −log 10 (adj-P) values indicating statistical significance such that proteins lying above the dotted red line are statistically significant findings with adjusted P-values<0.05. FIG. 2B illustrates the immunoblot analysis of KG1 and U937 cells treated with DMSO or Compound D for 4 hours. Where indicated, cells were pretreated with Bortezomib or MLN4924 for 30 minutes. FIGS. 2C and 2D illustrate the immunoblot analysis (FIG. 2C) and cell proliferation (FIG. 2D) of U937-Cas9 parental cells or cells stably transduced with lentiviral vectors expressing a non-targeting sgRNA (sgNT-1), a sgRNA targeting a non-coding region (sgNC-8), or a sgRNA targeting CRBN(sgCRBN-8). Cells were treated with DMSO or Compound D at indicated concentrations. FIGS. 2E and 2F illustrate the immunoblot analysis (left panel) and cell proliferation (right panel) of MOLM-13 (FIG. 2E) and OCI-AML2 (FIG. 2F) parental and CRBN−/− cells. Cells were treated with DMSO or Compound D at indicated concentrations. Results shown in all figure panels are representative of three biological replicates. Data in FIGS. 2D, 2E (right panel), and 2F (right panel) are shown as mean±SD, n=3 technical replicates.
(§2) FIG. 3A illustrates FLAG-HA tagged cereblon wild-type (FLAG-HA-CRBN) or Y384A/W386A mutant (FLAG-HA-YWAA) produced in 293FT CRBN−/− cells was used to capture V5 tagged GSPT1 (GSPT1-V5) and V5 tagged IKZF1 (IKZF1-V5) transiently expressed in 293FT CRBN−/− cells. […] FIG. 3B illustrates the surface representation of GSPT1 in complex with cereblon, DDB1 and Compound D, with DDB1 shown in purple, cereblon in blue, and GSPT1 in orange. The position of Compound D is shown with a white arrow. FIG. 3C illustrates the Fo-Fc omit electron density (green mesh) for Compound D (yellow sticks) contoured at 3.06. FIG. 3D illustrates GSPT1's interaction with cereblon is mediated by a β-hairpin loop. Hydrogen bond interactions between cereblon and the GPST1 β-hairpin are shown as yellow dashes. FIG. 3E illustrates details of the binding interface between cereblon and GSPT1. Compound D is represented as yellow sticks. Predicted polar interactions between Compound D and cereblon are shown as yellow dashes. FIG. 3F illustrates the immunoblot analysis of U937 parental cells or cells stably expressing HA-GSPT1-G575N. Cells were treated with DMSO or Compound D at the indicated concentrations. FIGS. 3G and 311 illustrate the immunoblot analysis (left panel) and cell proliferation (right panel) of MOLM-13 (FIG. 3G) and OCI-AML2 (FIG. 311) parental cells and cells stably expressing HA tagged GSPT1-G575N. Cells were treated with DMSO or Compound D at indicated concentrations.
(§3) Like all other cereblon modulators, Compound D contains a glutarimide ring (FIG. 1A) that can bind cereblon and redirect it to target neosubstrates for degradation. Thus, the effect of Compound D on the global proteome in AML cell line KG-1 was assessed using tandem mass tag (TMT) quantitative mass spectrometry.
(§4) Specifically, U937 cells stably expressing Cas9 were infected with lentiviral vectors constitutively expressing RFP and non-targeting or non-coding sgRNA (sgNT) controls, or sgRNAs targeting TSC1 or TSC2. Infected cells were selected with 1 μg/ml puromycin. […]

GSPT1 [2] = biological target: T2, GSPT1 (Homo sapiens, UniProt P15170); assay: as above; assay type: cell-based
T2 construct: endogenous in cells; host or cells: KG-1 (TMT proteomics); KG1, U937 / U937-Cas9, MOLM-13, OCI-AML2 (immunoblots)
T2 sequence (P15170 1-637 isoform P15170-3): as the sequence (P15170 1-637 isoform P15170-3 G575N) above, with N575G counted along it
T2 sequence (Q96SW2 whole entry partner): as the sequence (Q96SW2 whole entry partner) above
T2 sequence (Q16531 2-1140 partner): as the sequence (Q16531 2-1140 partner) above
Procedure: as §1, §2, §3, §4

U937 Cas9 cell lines = assay: Cell proliferation assay (CTG, 5 days) in U937 cells after RNP electroporation knockout; assay type: cell-based, human
From the text: Next, the roles of additional negative regulators of mTOR were studied. To knockout the studied genes, an electroporation-based method was used where a ribonucleoprotein (RNP) consisting of the Cas9 protein and gene-targeting gRNA was directly delivered to the U937 cells. A crRNA-tracrRNA duplex was first prepared consisting of the crRNA with a 20 nt sequence specific to each target gene and the universal tracrRNA to guide the Cas9 nuclease to the genomic locus. The sgRNA sequences targeting CRBN, ATF4, GCN1, GCN2, DDIT4, TSC1, TSC2, or non-targeting (NT-1) and non-coding (NC-8) controls were selected from the Cellecta sgRNA library. After pre-coupling the Cas9 enzyme to the crRNA-tracrRNA duplex, the complex was mixed with one million U937 cells per sample in nucleofection solution (4D-Nucleofector X kit SE; Lonza). Cells were electroporated in a 4D nucleofector according to the manufacturer's instructions and plated into complete cell culture media.
Then a cell proliferation assay was performed. Compound D dissolved in DMSO was injected into 96-well cell culture plates using a HP D300 digital dispenser in triplicate for each final Compound D concentration. […] After 5 days, cell proliferation was assessed using CTG (CellTiter-Glo) according to the manufacturer's instructions to assess the effects of Compound D on proliferation of each cell line.

Compound: O=C1CCC(N2Cc3cc(CNC(=O)C(F)(F)c4ccc(Cl)cc4)ccc3C2=O)C(=O)N1 (centres unmarked) [Compound D, 2-(4-chlorophenyl)-N-((2-(2,6-dioxopiperidin-3-yl)-1-oxoisoindolin-5-yl)methyl)-2,2-difluoroacetamide]
- Compound D-induced degradation of GSPT1-G575N (GSPT1 [1]): conferred complete resistance to Compound D-induced degradation
- downregulation of GSPT1 by Compound D under bortezomib, MLN4924 or knockout of CRBN (GSPT1 [2]; KG1, U937, MOLM-13, OCI-AML2, pretreatment 30 minutes): completely blocked
- Compound D induced GSPT1 degradation after ILF2 or ILF3 knockout (GSPT1 [2]; U937, OCI-AML2): drastically reduced cereblon protein levels, and hence Compound D-induced GSPT1 degradation; also recorded: attenuated Compound D induced GSPT1 degradation
- GSPT1 expression, cotreatment with cycloheximide (GSPT1 [2]; U937-Cas9 parental): downregulated GSPT1 expression
- GSPT1 expression, cotreatment with cycloheximide, TSC1 or TSC2 loss (GSPT1 [2]; U937 TSC1-/- and TSC2-/-): largely abrogated this effect
- Compound D induced GSPT1 degradation after TSC1 or TSC2 knockout (GSPT1 [2]; U937 and OCI-AML2): partially blocked GSPT1 degradation induced by Compound D; also recorded: Attenuated Compound D induced GSPT1 degradation
- anti-proliferative effects after depletion of GCN2, ATF4, GCN1, CRBN, DDIT4, TSC1, TSC2 (U937 Cas9 cell lines; U937): diminished this effect
- anti-proliferative effects in control cells (U937 Cas9 cell lines; U937 parental and non-coding (NC-8) controls): dose-dependent anti-proliferative effects
